Data on one molecule can be found in patent US9868705B2, “Tetra-aryl cyclobutane inhibitors of androgen receptor action for the treatment of hormone refractory cancer” (The Board of Trustees of the University of Illinois, priority 2013, dated 2018).

Molecules are shown by their SMILES. Where a chain is given by its changes, count along the chain named.

What is called IC50 is the concentration needed to halve the response being measured. Low readings indicate inhibition by little substance, high ones a need for much substance.

One data set has as its system AR-VP16 construct. Description: MMTV-luciferase reporter gene assay with AR-VP16 construct (AR/DNA binding). Format: cell-based. An excerpt: (§1) Accordingly, we analyzed the disruption of AR/DNA binding using a luciferase reporter gene assay transfected with an AR-VP16 construct that is constitutively active upon DNA binding, regardless of the ability of AR to recruit transcriptional machinery (FIG. 40A). Simultaneously, we examined CV-1 cells transfected with an AR construct that is only transcriptionally active when there is a positive interaction between the NTD and C-terminal LBD ([…]) (FIG. 40B).
(Reporter assays use an easily measured gene product as a stand-in for the process of interest.)

For data set [1], the system named is wild type androgen receptor. The data set can be described thus: FKBP51 endogenous gene expression in LNCaP-AR cells (wild type AR overexpressed). Format: cell-based, human. The conditions noted are these: at 20 M (so in the source). An excerpt: FIG. 44 depicts data for dose-dependent inhibition of androgen receptor-dependent endogenous gene expression of FKBP51 by Compound 1 of Example IV in LNCaP cells producing exclusively T877A mutant androgen receptor (LNCaP-XIP) and LNCaP cells transfected with wild type androgen receptor (LNCaP-androgen receptor, ratio of wild type to T877A receptor is ca. 3:1).
To more fully characterize the selectivity of compound 1 for the mutant receptor, we measured its inhibitory potential against the WT and T877A mutant receptor in an AR-dependent luciferase transcription assay in CV-1 cells (FIGS. 43A and B).

The test system of data set [2] is LNCaP and VCaP cell lines. Description: General toxicity screen in LNCaP and VCaP cell lines. It counts as cell-based, human. Conditions: at concentrations as high as 25 μM.
The target of a further data set is T1, AR NTD/LBD interaction (Homo sapiens, UniProt P10275).
T1 construct: expressed in transfected cells; host or cells: CV-1
T1 sequence (P10275 1-920): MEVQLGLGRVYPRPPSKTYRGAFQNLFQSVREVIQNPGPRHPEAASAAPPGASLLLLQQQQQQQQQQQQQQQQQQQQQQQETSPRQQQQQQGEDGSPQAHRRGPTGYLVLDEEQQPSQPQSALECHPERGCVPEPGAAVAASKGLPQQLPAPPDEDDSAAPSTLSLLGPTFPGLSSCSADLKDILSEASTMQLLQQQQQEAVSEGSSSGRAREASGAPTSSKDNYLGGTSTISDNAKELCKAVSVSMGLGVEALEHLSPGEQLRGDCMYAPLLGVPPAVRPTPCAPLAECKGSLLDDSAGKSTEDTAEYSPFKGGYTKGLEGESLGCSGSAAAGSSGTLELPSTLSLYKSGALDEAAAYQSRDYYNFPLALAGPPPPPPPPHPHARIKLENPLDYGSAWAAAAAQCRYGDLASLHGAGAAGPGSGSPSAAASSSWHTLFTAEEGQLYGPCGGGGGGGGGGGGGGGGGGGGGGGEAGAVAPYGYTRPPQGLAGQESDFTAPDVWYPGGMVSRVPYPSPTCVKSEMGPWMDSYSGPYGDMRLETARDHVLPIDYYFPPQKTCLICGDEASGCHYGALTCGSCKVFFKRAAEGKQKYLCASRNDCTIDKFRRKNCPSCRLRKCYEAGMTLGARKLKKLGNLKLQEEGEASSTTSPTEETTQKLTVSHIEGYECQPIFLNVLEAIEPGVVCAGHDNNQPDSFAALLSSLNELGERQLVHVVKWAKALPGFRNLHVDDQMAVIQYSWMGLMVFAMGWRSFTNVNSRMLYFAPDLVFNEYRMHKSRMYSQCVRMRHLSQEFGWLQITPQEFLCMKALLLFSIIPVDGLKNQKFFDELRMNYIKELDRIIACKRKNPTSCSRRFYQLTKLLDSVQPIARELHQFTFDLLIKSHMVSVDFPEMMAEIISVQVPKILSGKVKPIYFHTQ
Description: AR NTD/LBD interaction reporter assay in CV-1 cells. It counts as cell-based.
Description: as §1

Another data set addresses T2, AR (Homo sapiens, UniProt P10275).
T2 sequence (P10275 1-920): T1 sequence (P10275 1-920)
Description: AR relative binding affinity (RBA).

Another data set addresses T3, W741C AR (Homo sapiens, UniProt P10275, W742C).
T3 sequence (P10275 1-920 W742C): T1 sequence (P10275 1-920) with W742C
The data set can be described thus: MMTV-luciferase transcription assay in CV-1 cells, W741C AR.

Regarding `COc1cc([C@H]2[C@H](c3ccccc3)[C@H](c3cc(OC)nc(OC)n3)[C@H]2c2ccccc2)nc(OC)n1` [CB-22], in the data set with AR-VP16 construct, the “inhibition of AR/DNA binding” value is listed as “inhibitory activity”. Besides, in data set [1], the “inhibition of FKBP51 gene expression” value is on record as “approximately 50%”. The toxicity entry in data set [2] is “complete lack of toxicity”. Also, the “inhibition of the NTD/LBD interaction” value at AR NTD/LBD interaction is on record as “inhibitory activity”. In addition, the “AR RBA” value on AR is reported as 0.056%. Also, the IC50 at W741C AR came out at 2360 nM.
